Species: Rattus norvegicus
Test: Open TG-GATES - Regimen: Single
Assay type: toxicity, organism-based, Sprague-Dawley
Design: regimen Single, gender Male, age 6 weeks
Conditions: in vivo, po, 0 mg/kg, route gavage, dose level Control; for APTT / Bas / Eos / Fbg / Hb / Lym / MCH / MCHC / MCV / Mono / Neu / PT / RBC / Ret / WBC: tissue Blood; for KIDNEY_L / KIDNEY_R / KIDNEY_TOTAL: tissue Kidney; for ALT / AST / CRE / DBIL / IP / K / LDH / Na / RALB / TBIL / TC / TG / TP / gamma-GTP / ALP: tissue Plasma

Q: With `Cc1cnc(NC(=O)C2=C(O)c3ccccc3S(=O)(=O)N2C)s1` [MELOXICAM] as the compound, how does the TERMINAL_BW (3 h) read?
A: 226.2 g

Q: What about the APTT (3 h) of the same compound?
A: 17.9 s

Q: And the Bas (3 h)?
A: 0.4%

Q: And the Eos (3 h)?
A: 1%

Q: What about the Fbg (3 h) of the same compound?
A: 222.8 mg/dL

Q: And the Hb (3 h)?
A: 13.4 g/dL

Q: And the Lym (3 h)?
A: 78.6%

Q: What about the MCH (3 h) of the same compound?
A: 21.2 pg

Q: And the MCHC (3 h)?
A: 34.1%

Q: And the MCV (3 h)?
A: 62.3 fL

Q: And the Mono (3 h)?
A: 2%

Q: And the Neu (3 h)?
A: 17.6%

Q: And the PT (3 h)?
A: 11.8 s

Q: And the RBC (3 h)?
A: 633.2 x10_4/ul

Q: And the Ret (3 h)?
A: 7%

Q: What about the WBC (3 h) of the same compound?
A: 78.8 x10_2/uL

Q: What about the KIDNEY_L (3 h) of the same compound?
A: 1 g

Q: What about the KIDNEY_R (3 h) of the same compound?
A: 1 g

Q: And the KIDNEY_TOTAL (3 h)?
A: 2 g

Q: And the ALT (3 h)?
A: 37.6 IU/L

Q: And the AST (3 h)?
A: 68 IU/L

Q: What about the CRE (3 h) of the same compound?
A: 0.4 mg/dL

Q: What about the DBIL (3 h) of the same compound?
A: 0.06 mg/dL

Q: And the IP (3 h)?
A: 9.3 mg/dL

Q: And the K (3 h)?
A: 3.7 meq/L

Q: And the LDH (3 h)?
A: 149.4 IU/L

Q: And the Na (3 h)?
A: 141.4 meq/L

Q: And the RALB (3 h)?
A: 3.4 g/dL

Q: What about the TBIL (3 h) of the same compound?
A: 0.1 mg/dL

Q: What about the TC (3 h) of the same compound?
A: 79.6 mg/dL

Q: What about the TG (3 h) of the same compound?
A: 61.6 mg/dL

Q: And the TP (3 h)?
A: 5.4 g/dL

Q: And the gamma-GTP (3 h)?
A: 1 IU/L

Q: What about the TERMINAL_BW (6 h) of the same compound?
A: 224.5 g

Q: What about the Bas (6 h) of the same compound?
A: 0.6%

Q: And the Eos (6 h)?
A: 0.6%

Q: And the Fbg (6 h)?
A: 235.8 mg/dL

Q: What about the Lym (6 h) of the same compound?
A: 75.2%

Q: And the MCH (6 h)?
A: 21.8 pg

Q: What about the MCHC (6 h) of the same compound?
A: 33.8%

Q: And the MCV (6 h)?
A: 64.4 fL

Q: And the Mono (6 h)?
A: 3.2%

Q: What about the Neu (6 h) of the same compound?
A: 19.8%

Q: And the PT (6 h)?
A: 12.6 s

Q: And the RBC (6 h)?
A: 625.4 x10_4/ul

Q: What about the Ret (6 h) of the same compound?
A: 7.3%

Q: What about the WBC (6 h) of the same compound?
A: 110.7 x10_2/uL

Q: What about the KIDNEY_L (6 h) of the same compound?
A: 1 g

Q: And the KIDNEY_R (6 h)?
A: 1 g

Q: And the KIDNEY_TOTAL (6 h)?
A: 2 g

Q: What about the ALP (6 h) of the same compound?
A: 739.4 IU/L

Q: And the ALT (6 h)?
A: 31.4 IU/L

Q: What about the AST (6 h) of the same compound?
A: 61.6 IU/L

Q: What about the CRE (6 h) of the same compound?
A: 0.3 mg/dL

Q: What about the DBIL (6 h) of the same compound?
A: 0.066 mg/dL

Q: What about the IP (6 h) of the same compound?
A: 9.5 mg/dL

Q: And the K (6 h)?
A: 3.9 meq/L

Q: And the LDH (6 h)?
A: 153 IU/L

Q: And the Na (6 h)?
A: 141.4 meq/L

Q: What about the RALB (6 h) of the same compound?
A: 3.3 g/dL

Q: What about the TBIL (6 h) of the same compound?
A: 0.1 mg/dL

Q: And the TC (6 h)?
A: 74.8 mg/dL

Q: And the TG (6 h)?
A: 55.2 mg/dL

Q: What about the TP (6 h) of the same compound?
A: 5.4 g/dL

Q: What about the gamma-GTP (6 h) of the same compound?
A: 0.8 IU/L

Q: And the TERMINAL_BW (9 h)?
A: 222.3 g

Q: And the APTT (9 h)?
A: 17.6 s

Q: And the Bas (9 h)?
A: 0.2%

Q: And the Eos (9 h)?
A: 1%

Q: What about the Fbg (9 h) of the same compound?
A: 233.2 mg/dL

Q: And the Hb (9 h)?
A: 13.5 g/dL

Q: What about the Lym (9 h) of the same compound?
A: 72.4%

Q: What about the MCH (9 h) of the same compound?
A: 22.1 pg

Q: And the MCHC (9 h)?
A: 34.1%

Q: And the MCV (9 h)?
A: 64.8 fL

Q: And the Mono (9 h)?
A: 3%

Q: And the Neu (9 h)?
A: 22.4%

Q: What about the PT (9 h) of the same compound?
A: 12.6 s

Q: And the RBC (9 h)?
A: 610.8 x10_4/ul

Q: And the Ret (9 h)?
A: 7.2%

Q: What about the WBC (9 h) of the same compound?
A: 88.3 x10_2/uL

Q: And the KIDNEY_L (9 h)?
A: 1 g

Q: What about the KIDNEY_R (9 h) of the same compound?
A: 1 g

Q: What about the KIDNEY_TOTAL (9 h) of the same compound?
A: 2.1 g

Q: What about the ALP (9 h) of the same compound?
A: 910.8 IU/L

Q: What about the ALT (9 h) of the same compound?
A: 29.6 IU/L

Q: And the AST (9 h)?
A: 62.6 IU/L

Q: And the CRE (9 h)?
A: 0.4 mg/dL

Q: What about the DBIL (9 h) of the same compound?
A: 0.068 mg/dL

Q: What about the IP (9 h) of the same compound?
A: 9.5 mg/dL

Q: And the K (9 h)?
A: 4 meq/L

Q: And the LDH (9 h)?
A: 153.2 IU/L

Q: And the Na (9 h)?
A: 141.6 meq/L

Q: And the RALB (9 h)?
A: 3.4 g/dL

Q: What about the TBIL (9 h) of the same compound?
A: 0.1 mg/dL

Q: And the TC (9 h)?
A: 70.6 mg/dL

Q: What about the TG (9 h) of the same compound?
A: 78.8 mg/dL

Q: And the TP (9 h)?
A: 5.5 g/dL

Q: What about the gamma-GTP (9 h) of the same compound?
A: 1.2 IU/L

Q: And the TERMINAL_BW (24 h)?
A: 238.2 g

Q: And the Bas (24 h)?
A: 0.6%

Q: What about the Eos (24 h) of the same compound?
A: 1.2%

Q: What about the Fbg (24 h) of the same compound?
A: 224.8 mg/dL

Q: And the Lym (24 h)?
A: 78.6%

Q: What about the MCH (24 h) of the same compound?
A: 21.1 pg

Q: What about the MCHC (24 h) of the same compound?
A: 33.9%

Q: What about the MCV (24 h) of the same compound?
A: 62.4 fL

Q: And the Mono (24 h)?
A: 2.6%

Q: What about the Neu (24 h) of the same compound?
A: 16.4%

Q: What about the PT (24 h) of the same compound?
A: 11.7 s

Q: And the RBC (24 h)?
A: 646.8 x10_4/ul

Q: And the Ret (24 h)?
A: 6.4%

Q: And the KIDNEY_L (24 h)?
A: 1 g

Q: And the KIDNEY_R (24 h)?
A: 1 g

Q: And the KIDNEY_TOTAL (24 h)?
A: 2 g

Q: And the ALP (24 h)?
A: 981.2 IU/L

Q: And the ALT (24 h)?
A: 32.6 IU/L

Q: And the AST (24 h)?
A: 62.6 IU/L

Q: What about the CRE (24 h) of the same compound?
A: 0.4 mg/dL

Q: What about the DBIL (24 h) of the same compound?
A: 0.098 mg/dL

Q: What about the IP (24 h) of the same compound?
A: 7.5 mg/dL

Q: And the K (24 h)?
A: 3.9 meq/L

Q: What about the LDH (24 h) of the same compound?
A: 161 IU/L

Q: What about the Na (24 h) of the same compound?
A: 142.4 meq/L

Q: What about the RALB (24 h) of the same compound?
A: 3.4 g/dL

Q: What about the TBIL (24 h) of the same compound?
A: 0.2 mg/dL

Q: And the TC (24 h)?
A: 74.2 mg/dL

Q: And the TG (24 h)?
A: 125.4 mg/dL

Q: And the TP (24 h)?
A: 5.5 g/dL

From ChEMBL document CHEMBL3885861, “Open TG-GATES”
